Source: patent US20060089378A1 (priority 2004, published 2006)
Where two headings read alike, the source gives them in different places.

Tests used:
[1] = molecular target: T1, Cannabinoid CB1 Receptor (Homo sapiens, UniProt P21554); assay: Binding assay for CB1 agonists or inverse agonists (radioligand competition, membranes of transfected SK-N-MC cells); settings: for inhibition at 0.2 µM: read-out: Cannabinoid CB1 Receptor Binding percent inhibition
T1 construct: expressed in transfected cells

[2] = molecular target: T2, Cannabinoid CB2 Receptor (Homo sapiens, UniProt P34972); assay: Binding assay for CB2 agonists or inverse agonists (radioligand competition, membranes of transfected SK-N-MC cells); settings: for inhibition at 0.2 µM: read-out: Cannabinoid CB2 Receptor Binding percent inhibition
T2 construct: expressed in transfected cells

[3] = molecular target: CB1 receptor (human) (Homo sapiens, UniProt P21554); assay: cell-based; settings: for CB1 Receptor Functional Activity (change in functional activity, CRE β-gal): one compound concentration, β-galactosidase activity relative to vehicle treated cells
[4] = test concentration of 0.2 μM, compounds without an IC50 binding value
[5] = human CB1, SK-N-MC cell membranes, calculated by linear regression from percent inhibition at various concentrations, read-out: Cannabinoid CB1 Receptor Binding IC50

T2 sequence (P34972 whole entry): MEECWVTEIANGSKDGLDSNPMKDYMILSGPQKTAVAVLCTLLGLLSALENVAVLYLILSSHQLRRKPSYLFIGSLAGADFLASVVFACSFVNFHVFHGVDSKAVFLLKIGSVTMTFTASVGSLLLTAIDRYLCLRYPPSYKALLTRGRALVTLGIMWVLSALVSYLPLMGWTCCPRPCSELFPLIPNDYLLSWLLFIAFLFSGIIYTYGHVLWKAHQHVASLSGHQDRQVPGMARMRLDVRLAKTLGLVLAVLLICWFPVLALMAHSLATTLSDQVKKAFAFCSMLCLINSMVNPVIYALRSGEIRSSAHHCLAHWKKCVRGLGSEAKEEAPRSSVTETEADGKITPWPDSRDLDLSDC
Sequence of CB1 receptor (human) (P21554 whole entry): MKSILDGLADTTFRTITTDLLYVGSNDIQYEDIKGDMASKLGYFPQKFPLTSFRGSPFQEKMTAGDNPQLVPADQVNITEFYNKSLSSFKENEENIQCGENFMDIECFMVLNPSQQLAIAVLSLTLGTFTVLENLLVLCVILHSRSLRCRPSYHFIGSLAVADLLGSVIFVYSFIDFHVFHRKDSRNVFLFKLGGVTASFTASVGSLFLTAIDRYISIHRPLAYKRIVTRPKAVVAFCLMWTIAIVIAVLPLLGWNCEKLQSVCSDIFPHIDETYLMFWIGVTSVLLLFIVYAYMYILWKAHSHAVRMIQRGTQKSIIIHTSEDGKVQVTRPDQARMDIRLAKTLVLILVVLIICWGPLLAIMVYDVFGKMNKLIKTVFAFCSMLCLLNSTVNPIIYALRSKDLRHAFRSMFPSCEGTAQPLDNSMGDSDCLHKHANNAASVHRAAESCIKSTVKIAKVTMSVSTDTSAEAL
T1 sequence (P21554 whole entry): as above

Compound	IC50 [1]	inhibition at 0.2 µM [2]	EC50 [3]	also measured
COC(=O)N1C/C(=C\c2ccc(F)cc2)c2c(c(C(=O)NC(C)c3ccccn3)nn2-c2ccc(Cl)cc2)C1 (stereo not drawn) [Cpd 79, (7E)-1-(4-chloro-phenyl)-7-(4-fluoro-benzylidene)-3-(1-pyridin-2-yl-ethylcarbamoyl)-1,4,6,7-tetrahydro-pyrazolo[4,3-c]pyridine-5-carboxylic acid methyl ester]	0.01 µM	13%	0.003 µM	
CC(=O)N1C/C(=C\c2ccc(F)cc2)c2c(c(C(=O)NC(C)c3ccccn3)nn2-c2ccc(Cl)cc2)C1 (stereo not drawn) [Cpd 80, (7E)-5-acetyl-1-(4-chloro-phenyl)-7-(4-fluoro-benzylidene)-4,5,6,7-tetrahydro-1H-pyrazolo[4,3-c]pyridine-3-carboxylic acid (1-pyridin-2-yl-ethyl)-amide]	0.1 µM	0%	0.009 µM	
COC(=O)N1C/C(=C\c2ccc(F)cc2)c2c(c(C(=O)NN3CC4CCCC4C3)nn2-c2ccc(Cl)cc2)C1 (stereo not drawn) [Cpd 87, (7E)-1-(4-chloro-phenyl)-7-(4-fluoro-benzylidene)-3-(hexahydro-cyclopenta[c]pyrrol-2-ylcarbamoyl)-1,4,6,7-tetrahydro-pyrazolo[4,3-c]pyridine-5-carboxylic acid methyl ester]	0.05 µM	16%	0.001 µM	
COc1ccc(/C=C2\CN(C(=O)OC(C)(C)C)Cc3c(C(=O)N[C@H](C)c4ccccn4)nn(-c4ccc(Cl)cc4Cl)c32)cc1 [Cpd 89, (7E)-1-(2,4-dichloro-phenyl)-7-(4-methoxy-benzylidene)-3-[(1R)-1-pyridin-2-yl-ethylcarbamoyl]-1,4,6,7-tetrahydro-pyrazolo[4,3-c]pyridine-5-carboxylic acid tert-butyl ester]	0.02 µM	27%	0.005 µM	
O=C(NN1CC2CCCC2C1)c1nn(-c2ccc(Cl)cc2Cl)c2c1CNC/C2=C\c1ccc(F)cc1 (stereo not drawn) [Cpd 90, (7E)-1-(2,4-dichloro-phenyl)-7-(4-fluoro-benzylidene)-4,5,6,7-tetrahydro-1H-pyrazolo[4,3-c]pyridine-3-carboxylic acid (hexahydro-cyclopenta[c]pyrrol-2-yl)-amide]	0.03 µM	15%	0.008 µM	
CC(=O)N1C/C(=C\c2ccc(F)cc2)c2c(c(C(=O)NN3CC4CCCC4C3)nn2-c2ccc(Cl)cc2Cl)C1 (stereo not drawn) [Cpd 91, (7E)-5-acetyl-1-(2,4-dichloro-phenyl)-7-(4-fluoro-benzylidene)-4,5,6,7-tetrahydro-1H-pyrazolo[4,3-c]pyridine-3-carboxylic acid (hexahydro-cyclopenta[c]pyrrol-2-yl)-amide]	0.05 µM	14%	0.003 µM	
COC(=O)N1C/C(=C\c2ccc(F)cc2)c2c(c(C(=O)NN3CC4CCCC4C3)nn2-c2ccc(Cl)cc2Cl)C1 (stereo not drawn) [Cpd 92, (7E)-1-(2,4-dichloro-phenyl)-7-(4-fluoro-benzylidene)-3-(hexahydro-cyclopenta[c]pyrrol-2-ylcarbamoyl)-1,4,6,7-tetrahydro-pyrazolo[4,3-c]pyridinc-5-carboxylic acid methyl ester]	0.02 µM	4%	0.002 µM	
COc1ccc(/C=C2\CNCc3c(C(=O)N[C@H](C)c4ccccn4)nn(-c4ccc(Cl)cc4Cl)c32)cc1 [Cpd 93, (7E)-1-(2,4-dichloro-phenyl)-7-(4-methoxy-benzylidene)-4,5,6,7-tetrahydro-1H-pyrazolo[4,3-c]pyridine-3-carboxylic acid [(1R)-1-pyridin-2-yl-ethyl]-amide]	0.03 µM	7%	0.008 µM	
COc1ccc(/C=C2\CNCc3c(C(=O)NN4CC5CCCC5C4)nn(-c4ccc(Cl)cc4Cl)c32)cc1 (stereo not drawn) [Cpd 95, (7E)-1-(2,4-dichloro-phenyl)-7-(4-methoxy-benzylidene)-4,5,6,7-tetrahydro-1H-pyrazolo[4,3-c]pyridine-3-carboxylic acid (hexahydro-cyclopenta[c]pyrrol-2-yl)-amide]	0.08 µM	20%	0.009 µM	
COC(=O)N1C/C(=C\c2ccc(OC)cc2)c2c(c(C(=O)N[C@H](C)c3ccccn3)nn2-c2ccc(Cl)cc2Cl)C1 [Cpd 96, (7E)-1-(2,4-dichloro-phenyl)-7-(4-methoxy-benzylidene)-3-[(1R)-1-pyridin-2-yl-ethylcarbamoyl]-1,4,6,7-tetrahydro-pyrazolo[4,3-c]pyridine-5-carboxylic acid methyl ester]	0.003 µM	56%	0.001 µM	
COc1ccc(/C=C2\CN(C(C)=O)Cc3c(C(=O)N[C@H](C)c4ccccn4)nn(-c4ccc(Cl)cc4Cl)c32)cc1 [Cpd 97, (7E)-5-acetyl-1-(2,4-dichloro-phenyl)-7-(4-methoxy-benzylidene)-4,5,6,7-tetrahydro-1H-pyrazolo[4,3-c]pyridine-3-carboxylic acid [(1R)-1-pyridin-2-yl-ethyl]-amide]	0.007 µM		0.01 µM	inhibition at 0.2 µM [2, 4]: 33%
CCNC(=O)N1C/C(=C\c2ccc(OC)cc2)c2c(c(C(=O)N[C@H](C)c3ccccn3)nn2-c2ccc(Cl)cc2Cl)C1 [Cpd 98, (7E)-1-(2,4-dichloro-phenyl)-7-(4-methoxy-benzylidene)-1,4,6,7-tetrahydro-pyrazolo[4,3-c]pyridine-3,5-dicarboxylic acid 5-ethylamide 3-{[(1R)-1-pyridin-2-yl-ethyl]-amide}]	0.008 µM	17%	0.004 µM	
COc1ccc(/C=C2\CN(S(C)(=O)=O)Cc3c(C(=O)N[C@H](C)c4ccccn4)nn(-c4ccc(Cl)cc4Cl)c32)cc1 [Cpd 99, (7E)-1-(2,4-dichloro-phenyl)-5-methanesulfonyl-7-(4-methoxy-benzylidene)-4,5,6,7-tetrahydro-1H-pyrazolo[4,3-c]pyridine-3-carboxylic acid [(1R)-1-pyridin-2-yl-ethyl]-amide]	0.002 µM	32%	0.003 µM	
COC(=O)N1C/C(=C\c2ccc(OC)cc2)c2c(c(C(=O)NN3CC4CCCC4C3)nn2-c2ccc(Cl)cc2Cl)C1 (stereo not drawn) [Cpd 100, (7E)-1-(2,4-dichloro-phenyl)-3-(hexahydro-cyclopenta[c]pyrrol-2-ylcarbamoyl)-7-(4-methoxy-benzylidene)-1,4,6,7-tetrahydro-pyrazolo[4,3-c]pyridine-5-carboxylic acid methyl ester]	0.007 µM	63%	0.001 µM	
C[C@@H](NC(=O)c1nn(Cc2ccccc2)c2c1CN(C(=O)OC(C)(C)C)CC2)C1CCCCC1 [Cpd 103, 1-benzyl-3-[(1R)-1-cyclohexyl-ethylcarbamoyl]-1,4,6,7-tetrahydro-pyrazolo[4,3-c]pyridine-5-carboxylic acid tert-butyl ester]				IC50 [1, 5]: 0.3 µM; IC50 ([2]; human CB2, SK-N-MC cell membranes, calculated by linear regression from percent inhibition at various concentrations, read-out: Cannabinoid CB2 Receptor Binding IC50): 0.9 µM; CB1 Receptor Functional Activity (change in functional activity, CRE β-gal) [3]: 8%
CC(C)(C)OC(=O)N1CCc2c(c(C(=O)N[C@H]3C4(C)CCC(C4)C3(C)C)nn2Cc2ccccc2)C1 (stereo partly drawn) [Cpd 104, 1-benzyl-3-[(2S)-1,3,3-trimethyl-bicyclo[2.2.1]hept-2-ylcarbamoyl]-1,4,6,7-tetrahydro-pyrazolo[4,3-c]pyridine-5-carboxylic acid tert-butyl ester]				IC50 [1, 5]: 0.5 µM; IC50 [2]: 0.02 µM; CB1 Receptor Functional Activity (change in functional activity, CRE β-gal) [3]: −11%
CC12CCC(C1)C(C)(C)[C@H]2NC(=O)c1nn(Cc2ccccc2)c2c1CNCC2 (stereo partly drawn) [Cpd 105, 1-benzyl-4,5,6,7-tetrahydro-1H-pyrazolo[4,3-c]pyridine-3-carboxylic acid [(2S)-1,3,3-trimethyl-bicyclo[2.2.1]hept-2-yl]-amide]	0.2 µM			IC50 [2]: 0.5 µM; CB1 Receptor Functional Activity (change in functional activity, CRE β-gal) [3]: −18%
CC(=O)N1CCc2c(c(C(=O)NC3C4(C)CCC(C4)C3(C)C)nn2Cc2ccccc2)C1 (stereo not drawn) [Cpd 109, 5-acetyl-1-benzyl-4,5,6,7-tetrahydro-1H-pyrazolo[4,3-c]pyridine-3-carboxylic acid (1,3,3-trimethyl-bicyclo[2.2.1]hept-2-yl)-amide]	1.3 µM		8.1 µM	IC50 [2]: 0.08 µM
CC(C)(C)OC(=O)N1CCc2c(c(C(=O)NC3C4(C)CCC(C4)C3(C)C)nn2-c2ccccc2)C1 (stereo not drawn) [Cpd 111, 1-phenyl-3-(1,3,3-trimethyl-bicyclo[2.2.1]hept-2-ylcarbamoyl)-1,4,6,7-tetrahydro-pyrazolo[4,3-c]pyridine-5-carboxylic acid tert-butyl ester]				inhibition at 0.2 µM [1]: 27%; IC50 [2]: 0.1 µM; CB1 Receptor Functional Activity (change in functional activity, CRE β-gal) [3]: 24%
CC(=O)N1CCc2c(c(C(=O)NC3C4(C)CCC(C4)C3(C)C)nn2-c2ccccc2)C1 (stereo not drawn) [Cpd 112, 5-acetyl-1-phenyl-4,5,6,7-tetrahydro-1H-pyrazolo[4,3-c]pyridine-3-carboxylic acid (1,3,3-trimethyl-bicyclo[2.2.1]hept-2-yl)-amide]				inhibition at 0.2 µM [1, 4]: 44%; IC50 [2]: 0.1 µM; CB1 Receptor Functional Activity (change in functional activity, CRE β-gal) [3]: 45%
CCOC(=O)N1CCc2c(c(C(=O)NC3C4(C)CCC(C4)C3(C)C)nn2-c2ccccc2)C1 (stereo not drawn) [Cpd 113, 1-phenyl-3-(1,3,3-trimethyl-bicyclo[2.2.1]hept-2-ylcarbamoyl)-1,4,6,7-tetrahydro-pyrazolo[4,3-c]pyridine-5-carboxylic acid ethyl ester]	2.3 µM			IC50 [2]: 0.08 µM; CB1 Receptor Functional Activity (change in functional activity, CRE β-gal) [3]: 57%
